Data: patent US6790971B1, “19-Nor-steroids” (Aventis Pharma S.A., priority 1989, dated 2004)

Target: T1, Mineralocorticoid Receptor of the Rats' Kidney (Rattus norvegicus, UniProt P22199)
T1 construct: The kidneys were then removed, decapsulated and homogenized at 0° C; from tissue; host or cells: kidney cytosol (105,000 g supernatant) of adrenalectomised male Sprague-Dawley rats
T1 sequence (P22199 1-981): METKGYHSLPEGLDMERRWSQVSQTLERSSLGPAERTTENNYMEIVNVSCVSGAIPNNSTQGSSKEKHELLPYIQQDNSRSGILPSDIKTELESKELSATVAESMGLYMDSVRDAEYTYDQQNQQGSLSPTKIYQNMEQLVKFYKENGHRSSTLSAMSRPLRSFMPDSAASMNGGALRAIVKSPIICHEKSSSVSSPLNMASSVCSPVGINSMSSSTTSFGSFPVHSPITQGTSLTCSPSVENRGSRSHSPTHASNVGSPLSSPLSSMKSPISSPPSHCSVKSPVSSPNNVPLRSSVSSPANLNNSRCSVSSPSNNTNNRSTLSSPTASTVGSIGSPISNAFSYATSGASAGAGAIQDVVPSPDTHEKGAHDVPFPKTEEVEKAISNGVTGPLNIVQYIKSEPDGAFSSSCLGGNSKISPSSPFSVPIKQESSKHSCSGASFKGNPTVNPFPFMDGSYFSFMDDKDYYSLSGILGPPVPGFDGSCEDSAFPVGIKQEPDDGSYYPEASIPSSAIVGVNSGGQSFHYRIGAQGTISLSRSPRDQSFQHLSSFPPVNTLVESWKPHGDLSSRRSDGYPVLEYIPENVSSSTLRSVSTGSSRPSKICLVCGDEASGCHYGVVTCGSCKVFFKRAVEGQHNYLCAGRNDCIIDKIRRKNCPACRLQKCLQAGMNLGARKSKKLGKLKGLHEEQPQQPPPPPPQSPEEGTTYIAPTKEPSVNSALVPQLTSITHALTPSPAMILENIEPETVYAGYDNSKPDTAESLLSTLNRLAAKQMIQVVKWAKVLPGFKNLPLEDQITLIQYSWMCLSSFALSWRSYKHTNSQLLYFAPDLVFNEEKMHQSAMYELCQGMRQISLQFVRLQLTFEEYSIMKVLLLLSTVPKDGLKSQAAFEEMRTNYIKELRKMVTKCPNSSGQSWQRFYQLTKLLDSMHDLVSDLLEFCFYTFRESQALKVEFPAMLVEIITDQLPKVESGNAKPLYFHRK
Experiment: Relative affinity of the bond, mineralocorticoid receptor (tritiated aldosterone displacement)
Format: binding
Conditions: RAB=100(CH)/(CX); for Relative affinity of the bond (RAB), Mineralocorticoid, 1 H: incubation 1 H at 0° C.; for Relative affinity of the bond (RAB), Mineralocorticoid, 24 H: incubation 24 H at 0° C.
Description: Mineralocorticoid Receptor of the Rats' Kidney:
Male Sprague-Dawley EOPS rats weighing 140 to 160 g were subjected to supraenalectomy 4 to 8 days earlier and were sacrificed and their kidneys were perfused in situ with 50 ml of a 10 mM Tris, 0.25 M saccharose, HCl buffer pH 7.4. The kidneys were then removed, decapsulated and homogenized at 0° C. with the aid of a Potter teflon-glass (1 g of tissue for 3 ml of buffer). The homogenate was centrifuged for 10 minutes at […] and 0° C. and then to eliminate the fixation of the tritiated aldosterone upon the glucocorticoid receptor, 11β-,17β-dihydroxy-21-methyl-Δ^1,4,6-pregnatrien-20-yn-3-one which was fixed uniquely upon the glucocorticoid receptor was added to the supernatant at a final concentration of 10^−6 M. This supernatant was ultracentrifuged at 105,000 g for 60 minutes at 0° C. and aliquots of the supernatant thus obtained were incubated at 0° C. with a constant concentration (T) of tritiated aldosterone in the presence of increasing concentrations ([…]) of the cold aldosterone or the cold product to be studied. After an incubation time (t), the concentration of bound tritiated aldosterone (B) was measured by the adsorption on dextran carbon technique.
Calculation of the Relative Affinty of the Bond
The calculation of the Relative Affinity of the Bond (RAB) was identical for all the receptors. The following 2 curves were traced; the percentage of the bound tritiated hormone [formula]
was a function of the logarithm of the concentration of the cold reference hormone and [formula]
as a function of the logarithm of the concentration of the cold product tested.
One determined the straight line of the equation [formula]
The intersections of the straight line I50 and of the curves make it possible to evaluate the concentrations of the cold reference hormone (CH) and of the tested cold product (CX) which inhibit to an extend of 50% the binding of the tritiated hormone upon the receptor. The relative affinity of the bond (RAB) of the tested product is determined by the equation

| Molecule | Relative affinity of the bond (RAB), Mineralocorticoid, 1 H | Relative affinity of the bond (RAB), Mineralocorticoid, 24 H |
| --- | --- | --- |
| CCCCN(C)C(=O)CCCCCCCCCCC[C@H]1C[C@]2(C)[C@@H](O)CC[C@H]2[C@@H]2CCc3cc(O)ccc3[C@@H]12 [Example 24, N-butyl-3,17β-dihydroxy-N-methyl-11β-Δ^1,3,5(10)-estratriene dodecanamide] | 0 | 0 |
| N-butyl-3,17β-dihydroxy-N-methyl-19-nor-11β-Δ^1,3,5(10)-pregnatrien-20-yn undecanamide [Example 21] | 0.4 | 0.5 |
| CN(C)CCN(C)C(=O)CCCCCCCCCC[C@H]1C[C@]2(C)[C@@H](O)CC[C@H]2[C@@H]2CCC3=CC(=O)CCC3=C12 [Example 19, N-[2-(dimethylamino)-ethyl]-17β-hydroxy-N-methyl-3-oxo-11β-Δ^4,9-estradiene undecanamide] | 0.7 | 0.1 |
| CC#C[C@]1(O)CC[C@H]2[C@@H]3CCC4=CC(=O)CCC4=C3[C@@H](CCCCCCCCCCC(=O)NCCCC)C[C@@]21C [Example 22, N-butyl-17β-hydroxy-3-oxo-17α-(1-propynyl)-11β-Δ^4,9-estradiene undecanamide] | 0 | 0 |
| CC(C)N(C)C(=O)CCCCCCCCCC[C@H]1C[C@]2(C)[C@@H](O)CC[C@H]2[C@@H]2CCc3cc(O)ccc3[C@@H]12 [Example 16, 3,17β-dihydroxy-N-methyl-N-isopropyl-11β-Δ^1,3,5(10)-estratriene undecanamide] | 0 | 0 |
| CCCCN(C)C(=O)CCCCCCCCCC[C@H]1C[C@]2(C)[C@@H](O)CC[C@H]2[C@@H]2CCc3cc(O)ccc3[C@@H]12 [Example 13, N-Butyl-3,17β-Dihydroxy-N-Methyl-11β-Δ^1,3,5(10)-Estratriene-Undecanamide] | 0.19 | 0.00 |
| CN(Cc1ccccc1)C(=O)CCCCCCCCCC[C@H]1C[C@]2(C)[C@@H](O)CC[C@H]2[C@@H]2CCC3=CC(=O)CCC3=C12 [Example 17, N-benzyl-17β-hydroxy-N-methyl-3-oxo-11β-Δ^4,9-estradiene undecanamide] | 2 | 0.5 |
